# Measurements published in the NIST ThermoML archive (doi:10.1016/j.fluid.2018.04.016).
# Numbers after ± are expanded uncertainties.
# Assay: refractive index (Na D-line) (dimensionless)
# Conditions: 293.15 K; 101.33 kPa; Liquid; Standard Abbe refractometry
row,SMILES,refractive index
1,CC(=O)OC(C)C [1-methylethyl ethanoate],1.3779 ± 0.002
2,O=Cc1ccco1 [2-furaldehyde],1.5264 ± 0.002
3,COc1ccccc1O [2-methoxyphenol],1.5441 ± 0.002
4,CC(=O)CO [acetol],1.4262 ± 0.0023
5,CO [methanol],1.3293 ± 0.002
6,CCC=O [propanal],1.3644 ± 0.002
7,Cc1ccccc1 [toluene],1.4969 ± 0.002

# Same assay, conditions: 314.15 K; 101.33 kPa; Liquid; Standard Abbe refractometry
row,SMILES,refractive index
1,Oc1ccccc1 [phenol],1.5405 ± 0.002
